Data from publication PMC7933434, “Entropy-driven binding of gut bacterial β-glucuronidase inhibitors ameliorates irinotecan-induced toxicity” (Communications Biology, 2021).
“And” between values parts separate entries of the source, which are not always exact repeats. Equal entries are not always repeated.

Molecular target: T1, HsGUS (human GUS) (Homo sapiens, UniProt P08236)
T1 construct: HsGUS was prepared as described[37]; made in house
T1 sequence (P08236 23-651): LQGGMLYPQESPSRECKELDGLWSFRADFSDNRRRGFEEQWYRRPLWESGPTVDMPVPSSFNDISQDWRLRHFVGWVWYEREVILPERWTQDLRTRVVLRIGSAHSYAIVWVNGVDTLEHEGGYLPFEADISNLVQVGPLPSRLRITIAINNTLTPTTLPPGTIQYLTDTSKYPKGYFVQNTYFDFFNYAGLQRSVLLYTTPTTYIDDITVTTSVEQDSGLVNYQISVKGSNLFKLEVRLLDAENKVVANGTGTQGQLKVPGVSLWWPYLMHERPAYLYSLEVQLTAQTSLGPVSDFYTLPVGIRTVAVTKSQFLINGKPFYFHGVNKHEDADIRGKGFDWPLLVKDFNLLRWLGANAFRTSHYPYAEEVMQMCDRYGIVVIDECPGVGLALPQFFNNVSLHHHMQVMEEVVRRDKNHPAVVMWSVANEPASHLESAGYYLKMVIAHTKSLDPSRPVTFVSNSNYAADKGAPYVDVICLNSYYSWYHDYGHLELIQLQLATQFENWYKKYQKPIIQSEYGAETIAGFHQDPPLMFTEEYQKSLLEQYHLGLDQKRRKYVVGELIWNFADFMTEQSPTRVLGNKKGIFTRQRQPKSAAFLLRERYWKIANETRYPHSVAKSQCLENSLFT
Experiment: GUS inhibition assay, hydrolysis of 4-methylumbelliferyl-β-glucuronide, HsGUS
Type: biochemical
Parameters: GUS activity (hydrolysis rate of MUG): unit not given here

In the case of `CCCCCCCCC[C@@H]1NC[C@@H](O)[C@H](O)[C@H]1C(=O)O` [Inhibitor 4, C6-nonyl UIFG], the “GUS activity (hydrolysis rate of MUG)” value ([Inhibitor 4] =32 μM, [MUG] 0.2 mM) is reported as 1454.23 and 1423.51, the “GUS activity (hydrolysis rate of MUG)” value ([Inhibitor 4] =32 μM, [MUG] 0.4 mM) is reported as 2392.78 and 2276.09 and the “GUS activity (hydrolysis rate of MUG)” value ([Inhibitor 4] =32 μM, [MUG] 0.6 mM) is reported as 3009.56 and 2960.24. The “GUS activity (hydrolysis rate of MUG)” value ([Inhibitor 4] =32 μM, [MUG] 0.8 mM) was 3491.23 and 3336.67, the “GUS activity (hydrolysis rate of MUG)” value ([Inhibitor 4] =32 μM, [MUG] 1.2 mM) was 3870.44 and 4183.78 and the “GUS activity (hydrolysis rate of MUG)” value ([Inhibitor 4] =32 μM, [MUG] 1.6 mM) was 4158.21 and 4615.97. The “GUS activity (hydrolysis rate of MUG)” value ([Inhibitor 4] =32 μM, [MUG] 2 mM) was 4779.14 and 4997.44, the “GUS activity (hydrolysis rate of MUG)” value ([Inhibitor 4] =67 μM, [MUG] 0.1 mM) was 714.053 and 717.679 and the “GUS activity (hydrolysis rate of MUG)” value ([Inhibitor 4] =67 μM, [MUG] 0.2 mM) was 1251.96 and 1238.2. For the same compound, the “GUS activity (hydrolysis rate of MUG)” value ([Inhibitor 4] =67 μM, [MUG] 0.4 mM) was 2074.49 and 2003.18, the “GUS activity (hydrolysis rate of MUG)” value ([Inhibitor 4] =67 μM, [MUG] 0.6 mM) was 2680.12 and 2744.95 and the “GUS activity (hydrolysis rate of MUG)” value ([Inhibitor 4] =67 μM, [MUG] 0.8 mM) was 3069.97 and 3096.82. For the same compound, the “GUS activity (hydrolysis rate of MUG)” value ([Inhibitor 4] =67 μM, [MUG] 1.2 mM) was 3696.42 and 3579.45, the “GUS activity (hydrolysis rate of MUG)” value ([Inhibitor 4] =67 μM, [MUG] 1.6 mM) was 4205.98 and 4285.65 and the “GUS activity (hydrolysis rate of MUG)” value ([Inhibitor 4] =67 μM, [MUG] 2 mM) was 4703.3 and 4573.62. The “GUS activity (hydrolysis rate of MUG)” value ([Inhibitor 4] =132 μM, [MUG] 0.1 mM) was 517.307 and 519.469, the “GUS activity (hydrolysis rate of MUG)” value ([Inhibitor 4] =132 μM, [MUG] 0.2 mM) was 900.965 and 901.806 and the “GUS activity (hydrolysis rate of MUG)” value ([Inhibitor 4] =132 μM, [MUG] 0.4 mM) was 1492.38 and 1537.56. For the same compound, the “GUS activity (hydrolysis rate of MUG)” value ([Inhibitor 4] =132 μM, [MUG] 0.6 mM) was 1976.12 and 2037.84, the “GUS activity (hydrolysis rate of MUG)” value ([Inhibitor 4] =132 μM, [MUG] 0.8 mM) was 2410.12 and 2475.98 and the “GUS activity (hydrolysis rate of MUG)” value ([Inhibitor 4] =132 μM, [MUG] 1.2 mM) was 2927.86 and 2924.04. The “GUS activity (hydrolysis rate of MUG)” value ([Inhibitor 4] =132 μM, [MUG] 1.6 mM) was 3406.61 and 3409.83, the “GUS activity (hydrolysis rate of MUG)” value ([Inhibitor 4] =132 μM, [MUG] 2 mM) was 3959.47 and 3855.66 and the “GUS activity (hydrolysis rate of MUG)” value ([Inhibitor 4] =180 μM, [MUG] 0.1 mM) was 375.667 and 389.113. The “GUS activity (hydrolysis rate of MUG)” value ([Inhibitor 4] =180 μM, [MUG] 0.2 mM) was 647.66 and 642.675, the “GUS activity (hydrolysis rate of MUG)” value ([Inhibitor 4] =180 μM, [MUG] 0.4 mM) was 1075.66 and 1190.92 and the “GUS activity (hydrolysis rate of MUG)” value ([Inhibitor 4] =180 μM, [MUG] 0.6 mM) was 1564.63 and 1648.7. For the same compound, the “GUS activity (hydrolysis rate of MUG)” value ([Inhibitor 4] =180 μM, [MUG] 0.8 mM) was 1885.35 and 1934.39, the “GUS activity (hydrolysis rate of MUG)” value ([Inhibitor 4] =180 μM, [MUG] 1.2 mM) was 2412.5 and 2422.72 and the “GUS activity (hydrolysis rate of MUG)” value ([Inhibitor 4] =180 μM, [MUG] 1.6 mM) was 2821.07 and 2863.56. For the same compound, the “GUS activity (hydrolysis rate of MUG)” value ([Inhibitor 4] =180 μM, [MUG] 2 mM) was 3316.38 and 3309.46, the “GUS activity (hydrolysis rate of MUG)” value ([Inhibitor 4] =262 μM, [MUG] 0.1 mM) was 312.332 and 326.592 and the “GUS activity (hydrolysis rate of MUG)” value ([Inhibitor 4] =262 μM, [MUG] 0.2 mM) was 574.208 and 582.829. The “GUS activity (hydrolysis rate of MUG)” value ([Inhibitor 4] =262 μM, [MUG] 0.4 mM) was 1016.99 and 1025.39, the “GUS activity (hydrolysis rate of MUG)” value ([Inhibitor 4] =262 μM, [MUG] 0.6 mM) was 1397.45 and 1434.43 and the “GUS activity (hydrolysis rate of MUG)” value ([Inhibitor 4] =262 μM, [MUG] 0.8 mM) was 1699 and 1721.63. The “GUS activity (hydrolysis rate of MUG)” value ([Inhibitor 4] =262 μM, [MUG] 1.2 mM) was 2236.3 and 2225.05, the “GUS activity (hydrolysis rate of MUG)” value ([Inhibitor 4] =262 μM, [MUG] 1.6 mM) was 2654.14 and 2619.41 and the “GUS activity (hydrolysis rate of MUG)” value ([Inhibitor 4] =262 μM, [MUG] 2 mM) was 3001.13 and 3042.83.
